The record followed here is PubChem BioAssay (NCI).

Holding throughout (assay): NCI anticancer screen, dose series, 48 h
In assay [1] the test system is DMS 273 small cell lung.
The subject of assay [2] is NCI-H522 lung.
Assay [3] concerns M19-MEL melanoma.
The subject of assay [4] is DMS 114 small cell lung.
In assay [5] the test system is SNB-78 CNS.
In assay [6] the test system is RXF 393 renal.
Assay [7] deals with LXFL 529 NSCLC.
Assay [8] relates to KM20L2 colon.
Assay [9] deals with A549 NSCLC.
Assay [10] concerns HOP-92 NSCLC.
Assay [11] has as its system SK-OV-3 ovarian.
The test system of assay [12] is HS 578T breast.

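Grown in 96-well plates, cells were treated for 48 hours with each compound at five concentrations. Insufficient inhibition: endpoint recorded as highest concentration tested. TGI: total growth inhibition.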

As for `Nc1nc(-c2ccco2)cc(-c2ccc(CO)o2)n1`, the TGI in assay [1], in assay [2], in assay [3], in [4], in assay [5] and in assay [6] was above 100 µM each time. For the same compound, the TGI in [7], in assay [8] and in [9] was above 100 µM throughout.
`CCCCCCCCC/C=C1\CCC(CN(C)C)C1=O` (centres undefined): the TGI came to 3.25 µM in assay [1]; 4.78 µM in assay [2]; 3.87 µM in assay [3]; 4.39 µM in assay [10]; 4.87 µM in assay [4]; 5.03 µM in assay [5]. For the same compound, the TGI in assay [11] came out at 32 µM; in assay [7], 2.64 µM; in assay [8] it was 4.66 µM; in assay [9], 18 µM.
Take `N#CNC(=NCCc1c[nH]c2ccccc12)Oc1ccccc1`: the TGI in assay [1], in [3], in [4], in assay [5], in assay [6] and in [11] was above 100 µM throughout. For the same compound, the TGI in [7] is above 100 µM; in assay [8] it was 49.8 µM; in assay [9], above 100 µM.
In the case of `COC(=O)CCC(NC(=O)OC(C)(C)C)C(=O)NC(Cc1ccc(NC(=O)CCCC(C)=O)cc1)C(=O)NC(CCC(=O)OC)C(=O)OC` (centres undefined), the TGI in assay [2], in assay [10], in [6], in assay [11], in assay [12] and in assay [9] was above 100 µM each time.
Consider `Cc1ccc2c(/C=C/c3ccc(N(C)C)cc3)ccc(C(C)C)cc1-2`, for which the TGI in assay [2], in [10], in assay [6], in assay [11], in [12] and in assay [9] was above 100 µM in each case.
As for `CCN1CN(c2ccccc2)C2(CCN(CC(CC3OCCO3)c3ccc(F)cc3)CC2)C1=O` (centres undefined), the TGI is 26.6 µM in assay [2]; 10.3 µM in assay [10]; 44.8 µM in assay [6]; above 73.3 µM in assay [11]; above 64.1 µM in assay [12]; above 100 µM in assay [9].
For `C=C1C[C@H](O)[C@H](Br)C(C)(C)C12CCC(C)(Cl)C(Br)C2` (some centres undefined), the TGI was 15 µM in [2]; 8.76 µM in [10]; 10.6 µM in assay [6]; 12.7 µM in assay [11]; 23.6 µM in [12]; 9.12 µM in [9].
In the case of `O=C(c1cc2c(c3ccccc13)NC1(CCCCC1)N=C2C(F)(F)F)C(F)(F)F`, the TGI in assay [2] was found to be 6.95 µM; in [10] it was 13.4 µM; in assay [6] it was 12.7 µM; in assay [11], 18.7 µM; in assay [12] it was 29.3 µM; in assay [9], 16.3 µM.
Consider `CCOc1cc2c(c(OCC)c1O)CC[C@@H]1[C@@H]2CC[C@]2(C)[C@@H](O)CC[C@@H]12`, for which the TGI in assay [2] is 23.1 µM; in assay [10], 67.6 µM; in assay [6], 17.1 µM; in [11], 57.5 µM; in assay [12] it was 95.1 µM; in assay [9] it was above 100 µM.
As to `CC(C)N(C(C)C)S(=O)(=O)C[C@]12CC[C@H](CC13OCC(CS(=O)(=O)c1ccccc1)O3)C2(C)C` (some centres undefined), the TGI in [2] is above 100 µM; in assay [10] it was above 75.3 µM; in assay [6] it was above 100 µM; in assay [11], above 100 µM; in assay [12] it was above 100 µM; in assay [9], above 100 µM.
For `O=C(N/N=C/c1ccccc1)c1cccc2nc3ccccc3nc12`, the TGI was above 100 µM in [2]; above 100 µM in assay [10]; above 100 µM in assay [6]; above 100 µM in assay [11]; above 72.9 µM in [12]; above 84 µM in assay [9].
In the case of `CCOC(=O)C(Cl)(NC(=O)OCc1ccccc1)C(F)(F)F` (centres undefined), the TGI in [2], in [10], in assay [6], in assay [11], in [12] and in assay [9] was above 100 µM in each case.
Consider `CCOC(=O)c1c(NC(=S)Nc2ccccc2)sc2c1CCOC2`, for which the TGI in [2] was above 100 µM; in assay [10] it was 89.4 µM; in assay [6] it was above 100 µM; in assay [11] it was above 100 µM; in assay [12], above 100 µM; in assay [9] it was above 100 µM.
Consider `C#CC1(O)CCCCCCCCC2(CCCCCCCC1)OCCO2`, for which the TGI was 6.42 µM in assay [2]; 33.3 µM in [10]; 24.5 µM in assay [6]; 33.2 µM in assay [11]; 38.9 µM in assay [12]; 26.8 µM in assay [9].
